{"source": "ChEMBL document CHEMBL4699491", "about": "“Identification of TNO155, an Allosteric SHP2 Inhibitor for the Treatment of Cancer” (J Med Chem, 2020)", "key": {"KYSE-520 cell line": {"system": "KYSE-520 cell line", "experiment": "Antiproliferative activity against human KYSE-520 cells", "assay_type": "functional, cell-based"}, "[1]": {"molecular_target": "T1, Tyrosine-protein phosphatase non-receptor type 11 (Homo sapiens, UniProt Q06124)", "T1 sequence (Q06124 whole entry)": "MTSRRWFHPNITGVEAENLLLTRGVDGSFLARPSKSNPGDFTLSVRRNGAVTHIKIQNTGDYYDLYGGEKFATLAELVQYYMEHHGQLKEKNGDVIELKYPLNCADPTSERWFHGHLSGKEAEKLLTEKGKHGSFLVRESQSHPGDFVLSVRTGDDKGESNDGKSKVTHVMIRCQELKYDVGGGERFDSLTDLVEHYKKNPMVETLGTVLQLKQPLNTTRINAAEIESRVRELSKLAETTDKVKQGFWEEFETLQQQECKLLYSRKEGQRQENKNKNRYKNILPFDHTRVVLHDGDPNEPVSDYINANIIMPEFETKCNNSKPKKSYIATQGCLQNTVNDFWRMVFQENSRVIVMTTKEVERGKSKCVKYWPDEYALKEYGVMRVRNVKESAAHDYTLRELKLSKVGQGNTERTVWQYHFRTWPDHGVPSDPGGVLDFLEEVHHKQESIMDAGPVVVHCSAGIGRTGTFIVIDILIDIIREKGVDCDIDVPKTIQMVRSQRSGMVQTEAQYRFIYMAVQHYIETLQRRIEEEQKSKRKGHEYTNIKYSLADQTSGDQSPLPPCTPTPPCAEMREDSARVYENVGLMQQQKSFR", "description": "Allosteric inhibition of human SHP2 in human KYSE-520 cells assessed as reduction in ERK1/2 phosphorylation by fluorescence based assay"}, "[2]": {"molecular_target": "Voltage-gated inwardly rectifying potassium channel KCNH2 (Homo sapiens, UniProt Q12809)", "sequence (Q12809 whole entry)": "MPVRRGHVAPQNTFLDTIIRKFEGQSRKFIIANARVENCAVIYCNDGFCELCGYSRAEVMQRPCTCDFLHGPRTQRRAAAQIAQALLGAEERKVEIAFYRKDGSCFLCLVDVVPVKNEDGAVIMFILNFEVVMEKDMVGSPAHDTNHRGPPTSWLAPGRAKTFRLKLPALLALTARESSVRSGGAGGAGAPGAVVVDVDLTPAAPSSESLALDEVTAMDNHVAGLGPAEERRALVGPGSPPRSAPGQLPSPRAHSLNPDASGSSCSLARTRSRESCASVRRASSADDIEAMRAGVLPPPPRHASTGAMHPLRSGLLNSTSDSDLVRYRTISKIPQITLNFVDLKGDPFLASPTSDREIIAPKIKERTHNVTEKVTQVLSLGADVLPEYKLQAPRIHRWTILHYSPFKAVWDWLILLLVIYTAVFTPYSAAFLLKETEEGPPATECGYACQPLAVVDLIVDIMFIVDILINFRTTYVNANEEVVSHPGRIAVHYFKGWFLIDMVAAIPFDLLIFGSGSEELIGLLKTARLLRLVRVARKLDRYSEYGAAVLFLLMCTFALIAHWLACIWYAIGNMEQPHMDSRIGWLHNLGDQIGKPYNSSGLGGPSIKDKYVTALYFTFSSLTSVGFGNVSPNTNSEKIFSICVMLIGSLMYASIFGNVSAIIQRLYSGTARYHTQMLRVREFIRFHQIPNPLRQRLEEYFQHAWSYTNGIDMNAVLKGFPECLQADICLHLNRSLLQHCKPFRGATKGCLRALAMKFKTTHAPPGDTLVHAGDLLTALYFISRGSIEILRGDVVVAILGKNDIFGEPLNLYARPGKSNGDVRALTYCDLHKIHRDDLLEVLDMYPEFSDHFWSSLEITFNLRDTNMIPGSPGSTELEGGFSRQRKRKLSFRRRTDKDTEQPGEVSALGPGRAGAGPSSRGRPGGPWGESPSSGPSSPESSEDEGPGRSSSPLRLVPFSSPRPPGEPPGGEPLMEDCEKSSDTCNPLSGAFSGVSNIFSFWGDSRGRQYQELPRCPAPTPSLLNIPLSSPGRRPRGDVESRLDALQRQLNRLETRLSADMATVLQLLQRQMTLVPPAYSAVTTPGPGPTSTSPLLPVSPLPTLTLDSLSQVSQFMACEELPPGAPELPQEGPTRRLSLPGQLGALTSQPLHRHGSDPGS", "description": "Inhibition of human ERG by Q-patch assay"}, "physchem [3]": {"experiment": "physchem", "details": "aqueous, pH 6.8", "description": "Aqueous solubility of the compound at pH 6.8"}, "physchem [4]": {"experiment": "physchem", "details": "octanol/water", "description": "Lipophilicity, logP of the compound"}, "physchem [5]": {"experiment": "physchem", "details": "octanol/water", "remark": "listed apart in the source", "description": "Distribution coefficient, logD of the compound"}, "[6]": {"experiment": "Toxicity in mouse 3T3 cells under irradiation by NRU phototoxicity test", "assay_type": "cell-based"}, "[7]": {"molecular_target": "T2, Tyrosine-protein phosphatase non-receptor type 11 (Homo sapiens) (UniProt Q06124)", "T2 sequence (whole entry)": "T1 sequence (Q06124 whole entry)", "details": "filed as negative allosteric modulator"}, "[8]": {"details": "octanol/water", "description": "Lipophilicity, logP of the compound"}, "[9]": {"molecular_target": "T1, Tyrosine-protein phosphatase non-receptor type 11", "experiment": "Allosteric inhibition of 6x-histidine tagged human SHP2 (Met1-L525 residues) expressed in Escherichia coli BL21 Star (DE3) using IRS1_pY1172(dPEG8)[…] incubated for 30 mins by fluorescence based DIFMUP assay"}}, "data": [{"smiles": "CC1(CN)CCN(c2cnc(Sc3ccnc(N)c3Cl)c(N)n2)CC1", "values": [{"measurement": "IC50", "setting": "KYSE-520 cell line; Homo sapiens, KYSE-520", "result": 0.851, "unit": "µM"}, {"measurement": "IC50", "setting": "[1]", "result": 0.123, "unit": "µM"}, {"measurement": "IC50", "setting": "[2]", "result": "> 30", "unit": "µM"}, {"measurement": "solubility", "setting": "physchem [3]", "result": 437, "unit": "µM"}, {"measurement": "logP", "setting": "physchem [4]", "result": 2}, {"measurement": "logD", "setting": "physchem [5]", "result": -0.9}]}, {"smiles": "CC(=O)Nc1cccc(-n2c(=O)n(C3CC3)c(=O)c3c(Nc4ccc(I)cc4F)n(C)c(=O)c(C)c32)c1", "note": "[TRAMETINIB]", "values": [{"measurement": "IC50", "setting": "KYSE-520 cell line; Homo sapiens, KYSE-520", "result": 0.01, "unit": "µM"}]}, {"smiles": "CC1(CN)CCN(c2cnc(Sc3cccnc3C(F)(F)F)c(N)n2)CC1", "values": [{"measurement": "IC50", "setting": "KYSE-520 cell line; Homo sapiens, KYSE-520", "result": 4.05, "unit": "µM"}]}, {"smiles": "CC1(CN)CCN(c2cnc(Sc3cccc(N)c3Cl)c(N)n2)CC1", "values": [{"measurement": "IC50", "setting": "[1]", "result": 0.089, "unit": "µM"}]}, {"smiles": "CC1(N)CCN(c2cnc(-c3cccc(Cl)c3Cl)c(N)n2)CC1", "values": [{"measurement": "IC50", "setting": "KYSE-520 cell line; Homo sapiens, KYSE-520", "result": 2.5, "unit": "µM"}, {"measurement": "IC50", "setting": "[6]", "result": 4.5, "unit": "µM"}, {"measurement": "ΔTm", "setting": "[7]", "result": 7.5, "unit": "°C"}, {"measurement": "logP", "setting": "[8]", "result": 2.6}, {"measurement": "solubility", "setting": "physchem [3]", "result": 290, "unit": "µM"}, {"measurement": "logD", "setting": "physchem [5]", "result": 0.92}]}, {"smiles": "C[C@H]1OCC2(CCN(c3cnc(Sc4ccnc(N)c4Cl)c(N)n3)CC2)[C@@H]1N", "values": [{"measurement": "IC50", "setting": "KYSE-520 cell line; kyse-520", "result": 0.74, "unit": "µM"}, {"measurement": "solubility", "setting": "physchem [3]", "result": 382, "unit": "µM"}]}, {"smiles": "CC1(N)CCN(c2cnc(Cc3cccc(Cl)c3Cl)c(N)n2)CC1", "values": [{"measurement": "IC50", "setting": "[9]", "result": 9.9, "unit": "µM"}]}, {"smiles": "CC1(N)CCN(c2cnc(Sc3ccccc3Cl)c(N)n2)CC1", "values": [{"measurement": "IC50", "setting": "KYSE-520 cell line; kyse-520", "result": 8.14, "unit": "µM"}, {"measurement": "IC50", "setting": "[1]", "result": 0.251, "unit": "µM"}]}, {"smiles": "CC1(CN)CCN(c2cnc(-c3cccc(Cl)c3Cl)c(N)n2)CC1", "values": [{"measurement": "IC50", "setting": "KYSE-520 cell line; Homo sapiens, KYSE-520", "result": 5.54, "unit": "µM"}]}, {"smiles": "Nc1nc(N2CCC3(CC2)COC[C@H]3N)cnc1Sc1ccnc(N)c1Cl", "values": [{"measurement": "IC50", "setting": "KYSE-520 cell line; Homo sapiens, KYSE-520", "result": 0.665, "unit": "µM"}, {"measurement": "IC50", "setting": "[1]", "result": 0.099, "unit": "µM"}, {"measurement": "IC50", "setting": "[2]", "result": "> 25", "unit": "µM"}, {"measurement": "solubility", "setting": "physchem [3]", "result": 787, "unit": "µM"}, {"measurement": "logP", "setting": "physchem [4]", "result": 1.1}, {"measurement": "logD", "setting": "physchem [5]", "result": 0.2}]}, {"smiles": "CC1(N)CCN(c2cnc(Sc3cccnc3C(F)(F)F)c(N)n2)CC1", "values": [{"measurement": "IC50", "setting": "[9]", "result": 0.067, "unit": "µM"}, {"measurement": "IC50", "setting": "[1]", "result": 0.339, "unit": "µM"}, {"measurement": "IC50", "setting": "[2]", "result": 17.4, "unit": "µM"}, {"measurement": "solubility", "setting": "physchem [3]", "result": 85, "unit": "µM"}, {"measurement": "logP", "setting": "physchem [4]", "result": 2}, {"measurement": "logD", "setting": "physchem [5]", "result": -0.5}]}]}
